Twelve molecules from PubChem BioAssay AID248 (DTP/NCI, 2004) can be followed below.

This assay relates to L1210 leukemia ip in BDF1 mice, survival T/C. Put plainly: NCI In Vivo Anticancer Drug Screen. Data for tumor model L1210 Leukemia (intraperitoneal) in B6D2F1 (BDF1) mice. As to conditions: endpoint: mean survival time, higher = longer survival. In a few lines:
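In this screen, tumor-bearing mice given compound are compared to those given vehicle, and their survival values are reported as a treated-to-control quotient.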

Where [1] appears, read: dose: 100.0 mg/kg/injection, schedule: Q01DX001 (ip), vehicle: saline.
[2] abbreviates: dose: 200.0 mg/kg/injection, schedule: Q01DX001 (ip), vehicle: saline.
The mark [3] stands for this setting: dose: 400.0 mg/kg/injection, schedule: Q01DX001 (ip), vehicle: saline.

Molecules are shown by their SMILES. Inconclusive results and toxic doses are left out.

On to `COc1cc2c3c(c4ccc(O)cc4c2cc1OC)[C@@H](O)[C@@H]1CCCN1C3`, for which the T/C (dose: 2.5 mg/kg/injection, schedule: Q01DX005 (ip), vehicle: water) was 106 % of control; the T/C (dose: 2.5 mg/kg/injection, schedule: Q01DX009 (ip), vehicle: water) was 95 % of control; the T/C (dose: 2.5 mg/kg/injection, schedule: Q01DX015 (ip), vehicle: water) is 105 % of control; the T/C (dose: 5.0 mg/kg/injection, schedule: Q01DX001 (ip), vehicle: water) was 98 % of control; the T/C (dose: 5.0 mg/kg/injection, schedule: Q01DX005 (ip), vehicle: water) is 104 % of control; the T/C (dose: 5.0 mg/kg/injection, schedule: Q01DX009 (ip), vehicle: water) was 119 % of control. For the same molecule, the T/C was 109 % of control (dose: 5.0 mg/kg/injection, schedule: Q01DX009 (sc), vehicle: water); 120 % of control (dose: 5.0 mg/kg/injection, schedule: Q01DX015 (ip), vehicle: water); 114 % of control (dose: 5.0 mg/kg/injection, schedule: Q02DX005 (ip), vehicle: water); 111 % of control (dose: 5.0 mg/kg/injection, schedule: Q## X003 (ip), vehicle: water); 124 % of control (dose: 6.0 mg/kg/injection, schedule: Q01DX Z (ip), vehicle: water); 112 % of control (dose: 6.7 mg/kg/injection, schedule: Q01DX015 (ip), vehicle: water). For the same molecule, the T/C (dose: 7.1 mg/kg/injection, schedule: Q01DX015 (ip), vehicle: water) was 112 % of control; the T/C (dose: 10.0 mg/kg/injection, schedule: Q01DX001 (ip), vehicle: water) was 108 % of control; the T/C (dose: 10.0 mg/kg/injection, schedule: Q01DX005 (ip), vehicle: water) is 109 % of control; the T/C (dose: 10.0 mg/kg/injection, schedule: Q01DX009 (ip), vehicle: water) is 119 % of control; the T/C (dose: 10.0 mg/kg/injection, schedule: Q01DX009 (oral), vehicle: water) is 114 % of control; the T/C (dose: 10.0 mg/kg/injection, schedule: Q01DX009 (sc), vehicle: water) is 122 % of control. For the same molecule, the T/C is 112 % of control (dose: 10.0 mg/kg/injection, schedule: Q01DX015 (ip), vehicle: water); 101 % of control (dose: 10.0 mg/kg/injection, schedule: Q## X003 (ip), vehicle: water); 151 % of control (dose: 12.0 mg/kg/injection, schedule: Q01DX Z (ip), vehicle: water); 117 % of control (dose: 15.0 mg/kg/injection, schedule: Q01DX005 (ip), vehicle: water); 120 % of control (dose: 15.0 mg/kg/injection, schedule: Q01DX009 (ip), vehicle: water); 119 % of control (dose: 15.0 mg/kg/injection, schedule: Q01DX009 (sc), vehicle: water). For the same molecule, the T/C is 109 % of control (dose: 15.0 mg/kg/injection, schedule: Q01DX015 (ip), vehicle: water); 124 % of control (dose: 15.0 mg/kg/injection, schedule: Q02DX005 (ip), vehicle: water); 119 % of control (dose: 15.0 mg/kg/injection, schedule: Q## X003 (ip), vehicle: water); 104 % of control (dose: 20.0 mg/kg/injection, schedule: Q01DX001 (ip), vehicle: water); 114 % of control (dose: 20.0 mg/kg/injection, schedule: Q01DX009 (ip), vehicle: water); 109 % of control (dose: 20.0 mg/kg/injection, schedule: Q01DX009 (oral), vehicle: water). Further, the T/C was 88 % of control (dose: 20.0 mg/kg/injection, schedule: Q01DX009 (sc), vehicle: water); 110 % of control (dose: 20.0 mg/kg/injection, schedule: Q01DX Z (ip), vehicle: water); 117 % of control (dose: 20.0 mg/kg/injection, schedule: Q## X003 (ip), vehicle: water); 123 % of control (dose: 22.5 mg/kg/injection, schedule: Q01DX015 (ip), vehicle: water); 96 % of control (dose: 25.0 mg/kg/injection, schedule: Q01DX015 (ip), vehicle: water); 100 % of control (dose: 30.0 mg/kg/injection, schedule: Q01DX009 (oral), vehicle: water). The T/C (dose: 40.0 mg/kg/injection, schedule: Q01DX001 (ip), vehicle: water) is 114 % of control.
`O=[N+]([O-])/C=C/c1cccc2ccccc12`: the T/C is, setting by setting: (dose: 75.0 mg/kg/injection, schedule: Q01DX001 (ip), vehicle: saline) 94 % of control; (dose: 150.0 mg/kg/injection, schedule: Q01DX001 (ip), vehicle: saline) 94 % of control; (dose: 300.0 mg/kg/injection, schedule: Q01DX001 (ip), vehicle: saline) 101 % of control.
With `CN1CCCC(=O)NC1=O`, the T/C (dose: 100.0 mg/kg/injection, schedule: Q01DX009 (ip), vehicle: saline) was 96 % of control; the T/C (dose: 100.0 mg/kg/injection, schedule: Q04DX003 (ip), vehicle: saline) is 104 % of control; the T/C (dose: 200.0 mg/kg/injection, schedule: Q01DX009 (ip), vehicle: saline) was 97 % of control; the T/C (dose: 200.0 mg/kg/injection, schedule: Q04DX003 (ip), vehicle: saline) is 98 % of control; the T/C (dose: 400.0 mg/kg/injection, schedule: Q01DX009 (ip), vehicle: saline) is 102 % of control; the T/C (dose: 400.0 mg/kg/injection, schedule: Q04DX003 (ip), vehicle: saline) is 95 % of control.
On to `CC(C)NC(=O)Nc1cccc(OC(=O)NC(C)(C)C)c1`, for which the T/C is, setting by setting: (dose: 100.0 mg/kg/injection, schedule: Q04DX003 (ip), vehicle: saline with Tween-80) 88 % of control; (dose: 200.0 mg/kg/injection, schedule: Q04DX003 (ip), vehicle: saline with Tween-80) 91 % of control; (dose: 400.0 mg/kg/injection, schedule: Q04DX003 (ip), vehicle: saline with Tween-80) 89 % of control.
`Oc1cc2ccccc2c2c1ccc1ccccc12`: the T/C by setting is: under setting [1], 102 % of control; under setting [2], 111 % of control; under setting [3], 102 % of control.
In the case of `O=C1Nc2ccccc2CS1`, the T/C is 100 % of control under setting [1], 97 % of control under setting [2] and 94 % of control under setting [3].
In the case of `COc1ccc(NC(C)=O)cc1OC`, the T/C is, setting by setting: (dose: 100.0 mg/kg/injection, schedule: Q04DX002 (ip), vehicle: saline) 95 % of control; (dose: 200.0 mg/kg/injection, schedule: Q04DX002 (ip), vehicle: saline) 98 % of control; (dose: 400.0 mg/kg/injection, schedule: Q04DX002 (ip), vehicle: saline) 92 % of control.
As to `CN1C(=O)N(C)C(=O)C2(C1=O)C1(C(=O)N(C)C(=O)N(C)C1=O)C21C(=O)N(C)C(=O)N(C)C1=O`, the T/C reads like this: (dose: 100.0 mg/kg/injection, schedule: Q04DX002 (ip), vehicle: Klucel (hydroxypropylcellulose) (HPC)) 102 % of control; (dose: 200.0 mg/kg/injection, schedule: Q04DX002 (ip), vehicle: Klucel (hydroxypropylcellulose) (HPC)) 100 % of control; (dose: 400.0 mg/kg/injection, schedule: Q04DX002 (ip), vehicle: Klucel (hydroxypropylcellulose) (HPC)) 89 % of control.
As for `Cc1c(Cl)cccc1NS(=O)(=O)c1ccc(Cl)cc1`, the T/C was 117 % of control (dose: 100.0 mg/kg/injection, schedule: Q01DX009 (ip), vehicle: Klucel (hydroxypropylcellulose) (HPC)); 102 % of control (dose: 100.0 mg/kg/injection, schedule: Q04DX003 (ip), vehicle: Klucel (hydroxypropylcellulose) (HPC)); 111 % of control (dose: 200.0 mg/kg/injection, schedule: Q01DX009 (ip), vehicle: Klucel (hydroxypropylcellulose) (HPC)); 119 % of control (dose: 200.0 mg/kg/injection, schedule: Q04DX003 (ip), vehicle: Klucel (hydroxypropylcellulose) (HPC)); 101 % of control (dose: 400.0 mg/kg/injection, schedule: Q01DX009 (ip), vehicle: Klucel (hydroxypropylcellulose) (HPC)); 110 % of control (dose: 400.0 mg/kg/injection, schedule: Q04DX003 (ip), vehicle: Klucel (hydroxypropylcellulose) (HPC)).
Turning to `C=C(C)C#CC(O)(C(=O)OCC)C1CCCCC1` (stereo not given), the T/C is, setting by setting: (dose: 100.0 mg/kg/injection, schedule: Q01DX001 (ip), vehicle: other) 98 % of control; (dose: 200.0 mg/kg/injection, schedule: Q01DX001 (ip), vehicle: other) 109 % of control; (dose: 400.0 mg/kg/injection, schedule: Q01DX001 (ip), vehicle: other) 102 % of control.
For the molecule `CCc1c(Nc2ccccc2C)[nH]c(N)nc1=S`, the T/C reads like this: (dose: 100.0 mg/kg/injection, schedule: Q01DX Z (ip), vehicle: methylcellulose (MC)) 101 % of control; (dose: 200.0 mg/kg/injection, schedule: Q01DX Z (ip), vehicle: methylcellulose (MC)) 95 % of control.
For the molecule `S=C(c1cccs1)N1CCN(c2ccccc2)CC1`, the T/C under setting [1] was 97 % of control, the T/C under setting [2] was 95 % of control and the T/C under setting [3] is 97 % of control.
